# Measurements taken from US20040029928A1, “Novel propenohydroxamic acid derivatives” (priority 2000, published 2004).
# Key:
# [1] = target: T1, TACE (crude extracted protein from membrane fraction of THP-1 cells) (Homo sapiens, UniProt P78536); assay: In vitro TACE inhibitory activity (fluorogenic peptide substrate); format: biochemical; settings: crude TACE 10 μg/mL, substrate 20 μM, room temperature, at least 4 hours
# T1 construct: The supernatant was collected, which was provided for use as a TACE crude extract; endogenous in cells; host or cells: THP-1 cells stimulated with LPS, silica and hydroxyurea; membrane fraction solubilised with 1% Triton X-100
# T1 sequence (P78536 215-824): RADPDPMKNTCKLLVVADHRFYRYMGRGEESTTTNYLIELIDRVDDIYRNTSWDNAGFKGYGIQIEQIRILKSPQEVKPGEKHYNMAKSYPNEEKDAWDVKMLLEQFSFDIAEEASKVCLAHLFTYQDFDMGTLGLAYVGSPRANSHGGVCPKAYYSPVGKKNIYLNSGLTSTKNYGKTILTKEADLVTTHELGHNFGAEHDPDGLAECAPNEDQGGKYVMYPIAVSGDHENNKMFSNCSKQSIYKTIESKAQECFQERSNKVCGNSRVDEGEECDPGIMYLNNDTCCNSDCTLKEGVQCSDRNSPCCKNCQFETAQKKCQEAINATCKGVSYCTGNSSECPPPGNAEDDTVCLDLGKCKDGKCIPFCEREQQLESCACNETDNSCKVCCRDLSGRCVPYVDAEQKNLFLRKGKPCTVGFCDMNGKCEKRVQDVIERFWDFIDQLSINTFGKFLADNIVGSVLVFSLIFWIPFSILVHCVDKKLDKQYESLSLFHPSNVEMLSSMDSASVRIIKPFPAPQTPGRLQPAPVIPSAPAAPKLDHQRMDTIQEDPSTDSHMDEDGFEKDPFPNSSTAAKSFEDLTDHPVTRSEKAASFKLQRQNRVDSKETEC
# Experimental: Test 1 (In Vitro TACE Inhibitory Activity)
# (1) Crude Extraction of TACE from THP-1 Cell Membrane
# To THP-1 cells (cell density: 2×10^6/mL) suspended in RPMI 1640 medium containing 1% FBS were added LPS (E. coli 055:B55, final concentration: 1 pg/mL), silica (0.014 μm, final concentration: 50 μg/mL) and hydroxyurea (final concenration: 2 mM), followed by cultivation at 37° C. for 16 hours under 5%-CO2 conditions. The resulting cells were then washed once with RPMI 1640 medium free of FBS. The cells were suspended in 3 times the pellet volume of Solution A (10 mM sodium phosphate (pH 7.4), 1 mM MgCl2, 30 mM NaCl, 0.02% NaN3, 5 μM PMSF (phenyl methyl sulfonyl fluoride)). The cells were ground by a Polytron homogenizer (5 sec×5 times, ice cooling for 1 to 2 minutes each time). The homogenate solution was stacked over 41% sucrose-Solution A, followed by centrifugation (150,000 g×1 hour). After centrifugation, the intermediate layer was collected and diluted with 4 volumes of Solution A, followed by centrifugation (150,000 g×20 min). A sufficient amount of a solubilizing solution (1%-Triton X-100-A solution) was added (protein concentration: 1 mg/mL) and the mixture was stirred (4° C.×1 hour). Stirring was followed by centrifugation (100,000 g×30 min, 4° C.). The supernatant was collected, which was provided for use as a TACE crude extract.
# (2) Measurement of TACE Inhibitory Activity
# TACE (crude extracted protein from membrane fraction of THP-1 cells, final concentration: 10 μg/mL), each of test compounds (DMSO final concentration: 1%) shown in Table 1 and an incubate solution (50 mM Tris-HCl (pH 7.4), 5 mM CaCl2, 0.002% NaN3, 0.002% Brij 35) was added to a 96-well black plate. After pre-incubation at room temperature for 30 minutes, a substrate (N-methylanthranilyl-LAQAVRSK(DNP)rr-NH2: product of PEPTIDE INSTITUTE, INC., final concentration: 20 μM) was added, followed by incubation at room temperature for at least 4 hours. The fluorescence intensity was measured using POLAR STAR (Ex: 340 nm, Em: 430 nm) and from it, TACE inhibitory activity (IC50 value) was calculated.
# MMP-1 = target: T2, MMP-1 (Homo sapiens, UniProt P03956); assay: Measurement of MMP-1 inhibitory activity; format: biochemical; settings: MMP-1 (Cosmo Bio), fluorogenic substrate
# T2 construct: purchased Cosmo Bio Co
# T2 sequence (P03956 100-469): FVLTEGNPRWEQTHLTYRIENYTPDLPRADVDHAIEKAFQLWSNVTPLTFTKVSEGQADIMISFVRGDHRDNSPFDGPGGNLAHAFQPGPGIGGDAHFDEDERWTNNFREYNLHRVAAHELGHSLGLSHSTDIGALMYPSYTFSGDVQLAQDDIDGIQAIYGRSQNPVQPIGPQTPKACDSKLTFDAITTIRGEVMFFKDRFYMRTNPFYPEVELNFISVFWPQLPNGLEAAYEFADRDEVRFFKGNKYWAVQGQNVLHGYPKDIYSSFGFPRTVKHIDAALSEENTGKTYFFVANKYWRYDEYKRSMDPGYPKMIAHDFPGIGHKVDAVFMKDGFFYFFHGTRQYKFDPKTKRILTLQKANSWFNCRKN
# Experimental: Test 2 (Measurement of MMP-1 Inhibitory Activity)
# MMP-1 inhibitory activity (IC50 value) was measured in accordance with the above-described measuring method of TACE inhibitory activity by using MMP-1 (product of Cosmo Bio Co.) and, as a substrate, 7-methoxycoumarin-4-yl-acetyl-PLGL-[N^3-(2,4-dinitrophenyl)2,3-diaminopropionyl]-AR—NH2 (product of Peptide Institute Inc.). The fluorescence intensity was measured using POLAR STAR (Ex: 340 nm, Em: 405 nm).
# [2] = system: secretion of TNF-α, THP-1 cells; assay: Inhibitory activity against secretion of TNF-α in LPS-stimulated THP-1 cells (ELISA); format: cell-based; settings: Homo sapiens, LPS 100 ng/mL, 37° C., 4 hours, ELISA of supernatant
# Experimental: Test 3 (Measurement of Inhibitory Activity Against on of TNF-α)
# To THP-1 cells (5×10^5 mL) suspended in RPMI 1640 medium containing 10% FBS were added LPS (100 ng/mL) and a medicament of various concentrations (DMSO final concentration: 0.1%), followed by incubation at 37° C. for 4 hours under 5%-CO2 conditions. The TNF-α in the cultured supernatant was analyzed by ELISA, whereby inhibitory activity (IC50) against secretion of TNF-α was calculated.
SMILES,IC50 [1] [nM],IC50 (MMP-1) [µM],IC50 [2] [µM],melting point [°C]
"COc1ccc(S(=O)(=O)N(C)c2cccc(/C(=C\C(=O)NO)c3cccnc3)c2)cc1 [Compound 89, E-3-[3-[N-(4-Methoxybenzenesulfonyl)-N-methylamino]phenyl]-3-(3-pyridyl)propenohydroxamic Acid]",7,> 10,4.1,–
"COc1ccc(S(=O)(=O)N(c2cccc(/C(=C\C(=O)NO)c3cccnc3)c2)C(C)C)cc1 [Compound 88, E-3-[3-[N-(4-Methoxybenzenesulfonyl)-N-isopropylamino]phenyl]-3-(3-pyridyl)propenohydroxamic acid]",6.4,> 10,2.8,158 to 160
"CN(c1cccc(/C(=C\C(=O)NO)c2ccccc2)c1)S(=O)(=O)c1ccc([N+](=O)[O-])cc1 [Compound 68, Z-3-[3-[N-(4-Nitrobenzenesulfonyl)-N-methylamino]phenyl]-3-phenylpropenohydroxamic Acid]",35,> 10,–,153 to 155
"COc1ccc(S(=O)(=O)N(c2cccc(/C(=C\C(=O)NO)c3ccc[n+]([O-])c3)c2)C(C)C)cc1 [Compound 93, E-3-[3-[N-(4-methoxybenzenesulfonyl)-N-isopropylamino]phenyl]-3-(3-pyridyl N-oxide)propenohydroxamic Acid]",13,> 10,5.5,–
"COc1ccc(S(=O)(=O)N(C)c2cccc(/C(=C\C(=O)NO)c3ccccc3)c2)cc1OC [Compound 75, Z-3-[3-[N-(3,4-Dimethoxybenzenesulfonyl)-N-methylamino]phenyl]-3-phenylpropenohydroxamic acid]",13,> 10,6.4,98 to 101
"COc1ccc(S(=O)(=O)N(c2cccc(/C(=C\C(=O)NO)c3ccccc3)c2)C(C)C)cc1 [Compound 63, Z-3-[3-[N-(4-Methoxybenzenesulfonyl)-N-isopropylamino]phenyl]-3-phenylpropenohydroxamic Acid]",8.6,> 10,–,–
